From patent US10022412B2, “Composition for preventing or alleviating periodontal diseases, containing, as active ingredient, mangosteen extract or α- or γ-mangosteen” (Medi Bio Lab. co., Ltd., priority 2014, dated 2018)
Converted amounts (≈) assume the structure as drawn. Where two headings read alike, the source gives them in different places.

Test system: Streptococcus mutans ATCC 25175
Assay: MIC test for Streptococcus mutans (NCCLS)
Format: cell-based
Excerpt: Generally there are minimum inhibitory concentration (hereinafter, referred to MIC) test and time-kill assay test as test methods that become the standard for judging utility of antibiotics, when a new antibiotics is developed.
MIC TEST is a test method deciding minimum inhibitory concentration where bacteria cannot grow well, namely minimal usage of antibiotics for obtaining purposed antibacterial efficacy, and Time-Kill assay test is a test method deciding usage of antibiotics that can maintain purposed efficacy for certain time range. Each test was performed, in order to test whether mangosteem extracts have proliferation inhibiting efficacy against Streptocccus Mutans (Streptocccus Mutans ATCC […]) to a certain degree.
MIC test for Streptococcus mutans (Streptococcus mutans ATCC 25175) was progressed according to the American clinical test standard method, NCCLS (National Committee for Clinical Laboratory Standards). To do comparative test of antibacterial ability of mangosteen extracts against Streptococcus mutans, after preparing each analysis sample as shown in the following table 5, that is the concentration of each analysis sample was 0, 1, 2, 3, 4, 5, 6, 7, 8, 9 and 10 ul, and the concentration of used Streptococcus mutans bacteria finally became 1×10^5 at the ratio of 50% by weight, and the concentration of DMSO (dimethyl sulfoxide) used as an analysis sample solvent finally became 1% by weight, and BHI medium (Brain heart infusion: Peptic Digest of Animal tissue, Sodium Chloride, Dextrose, Pancreatic Digest of Gelation, Disodium Phosphate, Final PH7.4+-0.2; Difco Company) was added for the remaining 40% by weight, they were used for the test. […]
After adding the samples in a microtube (duplicate) and culturing at 37° C. for 24 hrs, growth inhibit ion degree was observed by measuring absorbance at 500 nm.

Row | MIC (S. mutans ATCC 25175, 37° C. 24 hrs, absorbance 500 nm) | MIC (Streptococcus mutans, ATCC25175, S. mutans ATCC 25175, 37° C. 24 hrs, absorbance 500 nm, read-out: MIC) | Compound | MIC (Streptococcus mutans, ATCC25175, 24 h)
1 | 1.0(ug/ml) | 1 µg/mL (≈ 2.44 µM) | COc1c(O)cc2oc3cc(O)c(CC=C(C)C)c(O)c3c(=O)c2c1CC=C(C)C [Alpha-mangosteen, alpha-mangosteen] | –
2 | – | – | CC(C)=CCc1c(O)cc2oc3cc(O)c(O)c(CC=C(C)C)c3c(=O)c2c1O [Gamma-mangosteen, gamma-mangosteen] | 4 µg/mL (≈ 10.1 µM)
